Test results published in ChEMBL document CHEMBL1201862, “PubChem BioAssay data set” (2004).
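Growth conditions: 96-well plates. Treatment: test compound, 48 hours, 5 concentrations. Analysis: linear interpolation between bracketing concentrations; unreached endpoints set to highest concentration. GI50 = concentration required for 50% inhibition of growth.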 The source made the active and inactive calls. Rule as the data show it: active = GI50 up to about 1.1 µM and inactive = higher.

Key:
Experiment in all cases: growth of human tumour cells (NCI), 48 h
[1] = system: RXF 631
[2] = system: XF498
[3] = system: LXFL 529
[4] = system: DLD-1
[5] = system: DMS-114
[6] = system: HOP-18
[7] = system: MDA-MB-231
[8] = system: Hs-578T
[9] = system: DU-145

Measured: GI50

COC(=O)C(CC=O)C(=O)C(=O)Nc1cccc(C(F)(F)F)c1 (configuration not stated)
inactive: [1] > 100 µM | [2] > 100 µM | [3] > 100 µM | [4] > 100 µM | [5] > 100 µM | [6] > 100 µM

CC(C)(C)c1ccc(Oc2ccc(C#N)c(C#N)c2)c(C(C)(C)C)c1
inactive: [1] > 60.3 µM | [2] 12.6 µM | [3] 31.2 µM | [4] 37 µM | [5] 19.6 µM | [6] > 100 µM

CCCNCc1nc2ccc(Br)cc2c(=O)n1CCC
inactive: [1] 7.05 µM | [2] 16.9 µM | [3] 12.6 µM | [4] 8.09 µM | [5] 10.8 µM | [6] 18.1 µM

CC(=O)/C(C)=N/NC(=O)c1ccccc1O
inactive: [7] > 100 µM | [1] > 10 µM | [8] > 100 µM | [9] > 100 µM | [2] > 10 µM | [3] > 10 µM | [4] > 10 µM | [5] > 10 µM | [6] > 10 µM
